Laboratory results taken from US20080300263A1, “Pyrazolo [1,5-a] pyrimidine compounds and pharmaceutical compositions containing them” (EiRx Therapeutics plc, priority 2005, published 2008).
Like-named read-outs stand apart in the source and are kept apart here.

Tests used:
[1] = test system: C9M-TF1 cells; assay: EC50 titration, Alamar Blue, suspension cells; type: cell-based; details: Homo sapiens, 72 h
Experimental: (§1) On the day of the assay compounds are used to prepare dilution series on Titration Plates which are plated at ten times their final screening concentration in 10 μl aliquots.
(§2) Suspension cells are split 24 hours prior to drug treatment in order to bring the cultures into the log phase of growth. On the day of the assay the cells are plated directly into the Titration Plates at the appropriate pre-determined seeding density (Table 1) in 90 μl volumes thus reducing the concentration of the compounds to their final test concentration. The plates are incubated for 72 hours at 37° C. and 5% CO2 after which time they are assayed by Alamar Blue.
(§3) The EC50 values are calculated using the values obtained from the Alamar Blue readout which are converted into a “Percentage of the Untreated Control” and using Graph Pad Prism these values are plotted against the logarithm of the test concentration. Using a non-linear regression analysis a sigmoidal dose-response curve is generated from which the EC50 is determined.

[2] = test system: FRAT2-C9M-TF1 cells; assay: EC50 titration, Alamar Blue, suspension cells; type: cell-based, Human; details: for EC50: Homo sapiens, 72 h, Alamar Blue
Experimental: as §1, §2, §3

[3] = test system: C9M-TF1 cells; assay: LY294002 control plate titration, Alamar Blue; type: cell-based; details: Homo sapiens, 72 h, FIG. 8
Experimental: (§4) This example describes an assay to examine the effect of the PI3K inhibitor LY294002 on cell survival for both FRAT2-[…]-TF1 or […]-TF1 cells, as determined by Alamar Blue. The growth factor GMCSF mediates its survival effect through the PI3/AKT pathway. Consequently, inhibitors of this pathway will increase apoptosis in pathway-dependent cell lines. Both FRAT2-[…]-TF1 or […]-TF1 are split 24 hours prior to drug treatment in order to bring the cultures into the log phase of growth. On the day of the assay the cells are plated directly into a 96 well microtitre plates containing 10 uL volumes of a serial dilutions of LY294002, such that there was a final cell number of 5000 cells per well in 90 uL volumes thus reducing the concentration of the compounds to their final test concentration. The plates are incubated for 72 h at 37° C. and 5% CO2 after which time they are assayed by Alamar Blue. […] The overexpression of FRAT2 leads to the stabilization β-catenin through disassociation of GSK3β from Axin and through the inhibition of β-catenin phosphorylation which results in an increased level of β-catenin in the nucleus of the cell where it forms a complex with the HMB box transcription factors LEF and TCF as well as with CREB Binding Protein. […]

[4] = test system: FRAT2-C9M-TF1 cells; assay: LY294002 control plate titration, Alamar Blue; type: cell-based; details: Homo sapiens, 72 h, FIG. 8
Experimental: as §4

[5] = test system: non-transformed breast cell line MCF10A; assay: EC50 titration, Alamar Blue, adherent cells; type: cell-based; details: Homo sapiens, MCF-10A, 72 h
Experimental: as §1
(§5) For adherent cell lines plated 24 hours previously, a 90 μl volume of the appropriate cell culture medium is then added to each well of the Titration Plates and mixed by repeated aspiration/dispensing, thus taking the compounds to their final test concentration. Once the Titration Plates have been prepared the media is removed from all wells of the cell culture plate and the contents of the Titration Plates are then transferred to the appropriate wells of their relevant Test Plates and incubated for 72 h at 37° C. and 5% CO2 after which time they are assayed by Alamar Blue. Using a combination of Microsoft Excel and Graph Pad Prism, EC50s are determined.
as §3

[6] = test system: breast cancer cell line MCF7; assay: EC50 titration, Alamar Blue, adherent cells; type: cell-based; details: Homo sapiens, 72 h
Experimental: as §1, §5, §3

[7] = test system: colon cancer cell line HT29; assay: EC50 titration, Alamar Blue, adherent cells; type: cell-based; details: Homo sapiens, HT-29, 72 h
Experimental: as §1, §5, §3

[8] = test system: LoVo; assay: EC50 titration, Alamar Blue; type: cell-based; details: Homo sapiens
Experimental: as §1, §5, §3

[9] = test system: HCT116; assay: EC50 titration, Alamar Blue; type: cell-based; details: Homo sapiens, HCT-116
Experimental: as §1, §5, §3

[10] = test system: HT29 Colorectal adenocarcinoma; assay: Primary high-throughput screen, Alamar Blue, adherent cells; type: cell-based; details: Homo sapiens, HT-29; compound at 10 μM, 72 h; read-out: percentage kill, HT29
Experimental: (§6) Adherent cells are plated at a pre-determined seeding density (Table 1) in flat-bottom 96 well plates 24 hours prior to drug treatment. The cell lines are plated in 100 μl volumes in each well. Cells are plated in all wells apart from those in Column 12 which contain 100 μL normal culture medium alone. These plates will be known as the Test Plates. The Test Plates are labelled with a Daughter Plate ID.
(§7) Daughter Plates containing 10 μl of a […] solution of test compound selected from among the candidate compounds stored at […] are thawed at room temperature. A 10 μL volume of 0.1% DMSO in PBS is added to all wells of Column 12 and the wells in Row A-F of Column 1. A 10 μl volume of a pre-determined concentration of the P13-Kinase inhibitor LY294002 is added to wells in Row G and H of Column 1. A 90 μl volume of the appropriate cell culture medium is then added to each well and mixed by repeated aspiration/dispensing. The compounds are at a final test concentration of 10 μM.
(§8) Once the Daughter Plates have been prepared the media is removed from all wells of the cell culture plate using an 8-Channel Vacuum Aspirator. The contents of the Daughter Plates are then transferred to the appropriate wells of their relevant Test Plates and the Test Plates are incubated for 72 h at 37° C. and 5% CO2. At the end of this period Test Plates are assayed by Alamar Blue. A 10 μl volume of Alamar Blue is added to all wells of the Test Plate. The Test Plates are incubated for […] at 37° C. and 5% CO2 and finally read using the BioTek SYNERGY plate reader (Excitation 530125 nm-Emission 590135 nm). Percentage inhibition is determined using Microsoft Excel spreadsheet calculations.
(§9) The figures appearing in the columns are the percentage kill achieved by that compound at 10 μM.

[11] = test system: SW480 Colon adenocarcinoma (Dukes' type B); assay: as above; type: cell-based; details: Homo sapiens, compound at 10 μM, 72 h, read-out: percentage kill, SW480
Experimental: as §6, §7, §8, §9

[12] = test system: A549 Non Small Cell Lung Carcinoma; assay: as above; type: cell-based; details: Homo sapiens, compound at 10 μM, 72 h, read-out: percentage kill, A549
Experimental: as §6, §7, §8, §9

[13] = test system: NCI ADR RES Breast adenocarcinoma (pleural effusion); assay: as above; type: cell-based; details: Homo sapiens, compound at 10 μM, 72 h, read-out: percentage kill, NCI ADR RES
Experimental: as §6, §7, §8, §9

[14] = test system: U1810 Non Small Cell Lung Carcinoma; assay: as above; type: cell-based; details: U-1810; compound at 10 μM, 72 h; read-out: percentage kill, U1810
Experimental: as §6, §7, §8, §9

[15] = test system: MCF7 Mammary gland adenocarcinoma; assay: as above; type: cell-based; details: Homo sapiens, compound at 10 μM, 72 h, read-out: percentage kill, MCF7
Experimental: as §6, §7, §8, §9

[16] = test system: PC3 Prostate carcinoma (bone metastasis); assay: as above; type: cell-based; details: compound at 10 μM, 72 h; read-out: percentage kill, PC3
Experimental: as §6, §7, §8, §9

[17] = test system: CACO2 Colon adenocarcinoma; assay: as above; type: cell-based; details: Homo sapiens, Caco-2; compound at 10 μM, 72 h; read-out: percentage kill, CAC02
Experimental: as §6, §7, §8, §9

[18] = test system: LS123 Colon adenocarcinoma (Dukes' type B); assay: as above; type: cell-based; details: Homo sapiens, LS-123; compound at 10 μM, 72 h; read-out: percentage kill, LS123
Experimental: as §6, §7, §8, §9

[19] = test system: C9M-TF1 cells; assay: Primary high-throughput screen, Alamar Blue, suspension cells; type: cell-based; details: Homo sapiens, 72 h, compound at 10 μM, read-out: percentage kill, C9M
Experimental: as §7, §8
(§10) Suspension cells are split 24 hours prior to drug treatment in order to bring the cultures into the log phase of growth. On the day of the assay the cells are plated directly into the Daughter Plates at the appropriate pre-determined seeding density (Table 1) in 90 μl volumes, the concentration of the test compounds thus being reduced to 10 μM. Cells are plated in all wells apart from those in Column 12 which contain 901 normal culture medium alone. The plates are incubated for 72 h at 37° C. and 5% CO2 after which time they are assayed by Alamar Blue as per the preceding example.
as §9

[20] = test system: FRAT2 overexpresing TF1 (FRAT2-C9M-TF1 cells); assay: as above; type: cell-based; details: Homo sapiens, compound at 10 μM, 72 h
Experimental: as §7, §8, §10, §9

[21] = minus GMCSF, read-out: percentage kill, FRAT2−
[22] = plus GMCSF, read-out: percentage kill, FRAT2+

Row | SMILES | EC50 [1] [µM] | EC50 ([2]; absence of growth factor) [µM] | EC50 ([2]; presence of growth factor) [µM] | EC50 [5] [µM] | EC50 [6] [µM] | EC50 [7] [µM] | EC50 [8] [µM] | inhibition at 10 µM [10] [%] | inhibition at 10 µM [11] [%] | inhibition at 10 µM [12] [%] | inhibition at 10 µM [13] [%] | inhibition at 10 µM [14] [%] | inhibition at 10 µM [15] [%] | inhibition at 10 µM [16] [%] | inhibition at 10 µM [17] [%] | inhibition at 10 µM [18] [%] | inhibition at 10 µM ([19]; first C9M column) [%] | inhibition at 10 µM ([19]; second C9M column) [%] | inhibition at 10 µM [20, 21] [%] | inhibition at 10 µM [20, 22] [%] | other results
1 | O=c1cc(N2CCOCC2)oc2c(-c3ccccc3)cccc12 [LY294002, reference compound] | 6.03 | 75.9 | 51.3 | 12.9 | 1.07 | 5.37 | 3 | – | – | – | – | – | – | – | – | – | – | – | – | – | difference of EC50 between FRAT2-C9M-TF1 and C9M-TF1 cells ([2]; FRAT2-C9M-TF1 cells more resistant): approx. 8.5 fold; EC50 [3]: ~6 µM; EC50 [4]: ~50 µM; EC50 [9]: 21 µM
2 | COc1ccc(-c2cnn3c(NCc4ccccn4)ccnc23)cc1 [Compound 3] | 5.62 | 4.17 | 2.24 | 7.24 | 0.83 | 0.74 | 2.2 | 80 | 64 | 13 | 66 | 15 | 85 | -20 | 58 | 95 | 8 | -12 | 76 | 40 | EC50 [9]: 2.2 µM
3 | c1ccc(CNc2ccnc3c(-c4cccc5cccnc45)cnn23)nc1 [Compound 8] | 17.8 | 5.62 | 5.75 | 6.17 | 1.78 | 1.51 | – | 78 | 71 | -3 | 85 | 68 | 83 | 56 | 71 | 92 | 7 | -4 | 68 | 39 | –
4 | COc1ccc(-c2cnn3c(NCc4ccccn4)ccnc23)cc1OC [Compound 2] | 24 | 6.31 | 7.08 | 20.4 | 2.24 | 4.37 | 2.2 | 60 | 68 | 18 | 73 | 23 | 68 | 4 | 66 | 91 | -2 | 0 | 57 | 33 | EC50 [9]: 3 µM
5 | COc1cccc(-c2cnn3c(NCc4ccccn4)ccnc23)c1 [Compound 1] | 26 | 11.8 | 12.9 | 18.6 | 3.8 | 3.98 | – | 58 | 33 | 34 | 58 | 15 | 68 | -4 | 61 | 91 | -1 | 2 | 54 | 28 | –
